We go through 25 compounds from ChEMBL document CHEMBL1201862, “PubChem BioAssay data set” (2004).

Molecules are shown by their SMILES.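 Compound exposure: 48 hours, 5 concentrations, 96-well plates. GI50 marks 50% less growth.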 Active and inactive are the calls of the source. Rule as the data show it: active = GI50 up to about 1.1 µM and inactive = higher.

Some test systems named below: LXFL 529; KM-20L2; HOP-18; DMS-114; XF498; RXF 631; Hs-578T; BT-549; MDA-N.
Holding throughout (experiment): NCI tumour cell line growth inhibition, 48 h

`C/C(CCn1[nH]c(=O)ccc1=O)=N\OCCCc1ccccc1`: the GI50 in the assay on LXFL 529, with KM-20L2, with HOP-18, in the assay on DMS-114 and in the assay with XF498 was > 100 µM (inactive) throughout.
Consider `Clc1cccc(C2N3CCCCC3[C@@H]3c4[nH]c5ccccc5c4CCN23)c1` (stereo partly specified), for which the GI50 in the assay with KM-20L2 is 56.8 µM (inactive); with HOP-18, > 100 µM (inactive); in the assay with DMS-114, 20.6 µM (inactive); in the assay on XF498, 20.9 µM (inactive).
Regarding `CCOC(=O)C1=C(C)C2C3C(=O)OC(=O)C3C1(C)C1C(=O)OC(=O)C21` (stereo unspecified), the GI50 in the assay on LXFL 529, in the assay with KM-20L2, with RXF 631 and with DMS-114 was > 100 µM (inactive) in each case.
Turning to `Cc1ccc(NC(=O)CCc2nnc(S)[nH]2)cc1`, the GI50 in the assay with LXFL 529 was > 100 µM (inactive); in the assay with KM-20L2, 54.8 µM (inactive); with RXF 631 it was > 100 µM (inactive); with HOP-18 it was > 100 µM (inactive); with DMS-114, 39.5 µM (inactive); in the assay with XF498, > 100 µM (inactive).
Turning to `CC1OC(=O)N2CCC=CC12` (stereo unspecified), the GI50 with LXFL 529, in the assay on KM-20L2, in the assay with RXF 631, with HOP-18, in the assay on DMS-114 and with XF498 was > 100 µM (inactive) in each case.
In the case of `Cc1cc(O)c(C=O)c(C)c1CCC1(C)C=Cc2cc(O)ccc2O1` (stereo unspecified), the GI50 is 15.7 µM (inactive) with LXFL 529; 25.1 µM (inactive) in the assay on KM-20L2; 18.3 µM (inactive) in the assay with HOP-18; 18.4 µM (inactive) in the assay with DMS-114; 19.1 µM (inactive) in the assay on XF498.
With `CS/C(=N\c1ccc([N+](=O)[O-])cc1C#N)NC(=O)c1ccccc1`, the GI50 with LXFL 529 is > 100 µM (inactive); in the assay on KM-20L2, > 100 µM (inactive); in the assay on RXF 631, > 100 µM (inactive); in the assay on HOP-18, 75.7 µM (inactive); in the assay with DMS-114, > 100 µM (inactive); with XF498, > 100 µM (inactive).
Take `CC(=O)C1=C(O)C(N)C2Cc3c(c(O)c4c(O)c(C)ccc4c3C)C(=O)C2(O)C1=O` (stereo unspecified): the GI50 is 2.66 µM (inactive) with LXFL 529; 2.85 µM (inactive) with KM-20L2; 2.2 µM (inactive) in the assay with RXF 631; 2.93 µM (inactive) with HOP-18; 2.38 µM (inactive) with DMS-114; 1.84 µM (inactive) with XF498.
As for `CC(C)C1CC(O)O[C@@H]([C@@H](C)[C@H]2CC(=O)[C@@H]3[C@@H]4[C@@H](O)[C@H](O)[C@H]5[C@@H](O)[C@H](O)CC[C@]5(C)[C@H]4CC[C@]23C)C1` (stereo partly specified), the GI50 is > 100 µM (inactive) in the assay on LXFL 529, > 100 µM (inactive) in the assay with KM-20L2 and 18.9 µM (inactive) with XF498.
Regarding `O=C(/C=N/O)Nc1ccc(Cl)c(I)c1`, the GI50 in the assay on LXFL 529 was 12.9 µM (inactive); in the assay on KM-20L2, 33 µM (inactive); with DMS-114, 16.6 µM (inactive); in the assay with XF498 it was 21.6 µM (inactive).
Regarding `O=S(=O)(O)c1ccc([Se][Se]c2ccc(S(=O)(=O)O)cc2)cc1`, the GI50 in the assay with LXFL 529 is 51.2 µM (inactive); in the assay with KM-20L2 it was > 100 µM (inactive); in the assay with HOP-18, > 100 µM (inactive); in the assay with DMS-114 it was > 100 µM (inactive); in the assay with XF498, > 100 µM (inactive).
For `Cc1cc(C)nc(NS(=O)(=O)c2ccc(NC(=O)c3cccc4c(Nc5ccc(S(=O)(=O)Nc6nc(C)cc(C)n6)cc5)c5ccccc5nc34)cc2)n1`, the GI50 is 21.3 µM (inactive) with LXFL 529; 20.1 µM (inactive) in the assay with KM-20L2; 18.1 µM (inactive) with RXF 631; 12.2 µM (inactive) in the assay with HOP-18; 33.6 µM (inactive) with XF498.
Turning to `Fc1ccc(/N=C2C=C/C(=N\c3ccc(F)cc3)c3ccccc3\2)cc1`, the GI50 in the assay with LXFL 529, with KM-20L2, in the assay with HOP-18 and in the assay on XF498 was > 100 µM (inactive) in each case.
Regarding `CC(=O)CC[N+](C)(C)C`, the GI50 is 12.6 µM (inactive) in the assay with Hs-578T; 12.9 µM (inactive) in the assay on LXFL 529; 35 µM (inactive) in the assay on BT-549; 40.7 µM (inactive) with MDA-N; 25.7 µM (inactive) in the assay on KM-20L2; 28.8 µM (inactive) with RXF 631. Besides, in the assay with HOP-18, the GI50 is 13.9 µM (inactive).
Consider `CC(=O)N/C(=C\c1ccc(/C=C(\NC(C)=O)c2nc3cc(Cl)ccc3[nH]2)cc1)c1nc2ccccc2[nH]1`, for which the GI50 with LXFL 529, in the assay on KM-20L2, with RXF 631, in the assay on DMS-114 and in the assay on XF498 was > 100 µM (inactive) each time.
For the compound `CN(CCN(C)C(=O)CCn1ccc(=O)[nH]c1=O)C(=O)CCn1ccc(=O)[nH]c1=O`, the GI50 in the assay on LXFL 529, in the assay on KM-20L2, in the assay with DMS-114 and in the assay on XF498 was > 100 µM (inactive) in each case.
Regarding `CCOC(=O)/C=C1\Nc2ccccc2-n2nnnc21`, the GI50 in the assay on LXFL 529, with KM-20L2, with HOP-18 and in the assay with DMS-114 was > 100 µM (inactive) each time.
On to `O=C1NC(=O)C2C(=O)NC(=O)C1C2Cc1ccco1` (stereo unspecified), for which the GI50 in the assay on KM-20L2, in the assay on DMS-114 and in the assay on XF498 was > 100 µM (inactive) each time.
With `COC(=O)C1=CC(O)CCC1c1ccc(OC)cc1` (stereo unspecified), the GI50 in the assay on LXFL 529, in the assay on KM-20L2, in the assay with HOP-18 and in the assay on DMS-114 was > 100 µM (inactive) in each case.
Consider `COc1ccc2nc(-c3ccc(O)cc3)cc(O)c2c1`, for which the GI50 is 4.3 µM (inactive) in the assay with Hs-578T; 1.1 µM (active) with LXFL 529; 25.9 µM (inactive) in the assay with BT-549; 2.76 µM (inactive) with MDA-N; 1.7 µM (inactive) with KM-20L2; 3.63 µM (inactive) in the assay on RXF 631. The GI50 in the assay with HOP-18 is 4.78 µM (inactive); with DMS-114, 0.474 µM (active); with XF498, 0.556 µM (active).
For the compound `NNc1cnn(-c2ccccc2)c(=O)c1Cl`, the GI50 with LXFL 529, in the assay on KM-20L2, in the assay with HOP-18 and with DMS-114 was > 100 µM (inactive) throughout.
As for `CCO/N=C(/N)c1ncn(Cc2ccccc2)c1NCC(OCC)OCC`, the GI50 was > 100 µM (inactive) in the assay with LXFL 529, > 100 µM (inactive) with KM-20L2, > 100 µM (inactive) in the assay on DMS-114 and 29.7 µM (inactive) in the assay with XF498.
As to `Nc1cn(C2OC(CC(c3ccccc3)(c3ccccc3)c3ccccc3)C(O)C2O)c(=O)[nH]c1=O` (stereo unspecified), the GI50 is 31.8 µM (inactive) in the assay with LXFL 529; 22 µM (inactive) in the assay with KM-20L2; 43.9 µM (inactive) in the assay with RXF 631; 31.9 µM (inactive) with HOP-18; 15.5 µM (inactive) with DMS-114; 28.6 µM (inactive) with XF498.
Regarding `N#CCCN(CCC#N)C(=O)c1cccc(C(=O)N(CCC#N)CCC#N)c1`, the GI50 is 14.1 µM (inactive) in the assay with LXFL 529, > 42.8 µM (inactive) in the assay with KM-20L2, > 100 µM (inactive) in the assay with DMS-114 and > 100 µM (inactive) in the assay on XF498.
Regarding `N#C/C(=C1\SC(/N=N/c2ccccc2)C(=O)N1c1ccccc1)c1nc2ccccc2[nH]1` (stereo unspecified), the GI50 with LXFL 529 was > 100 µM (inactive); with KM-20L2, > 100 µM (inactive); in the assay on DMS-114, > 100 µM (inactive); in the assay on XF498, 17.7 µM (inactive).
